# Tested on: diabetic patients (type 1 and type 2 diabetes mellitus)
# Test: Research Plan 2: therapy of diabetes mellitus targeting a bone marrow-derived abnormal hematopoietic stem cell
# Type: in vivo, human
# Details: type 1 and type 2 diabetic patients; twelve weeks of therapy; predicted result
substance,measurement,value
insulin [insulin alone],Effect of eliminating an abnormal hematopoietic stem cell,not eliminated
same,Effect of healing diabetes mellitus,not observed
same,Therapeutic effect on a complication,"observed to some extent, but the complication does not heal"

# Source: US20220403032A1, “THERAPY FOR DIABETES USING STEM CELL MIGRATION AGENT” (Biozipcode, Inc., priority 2019, published 2022)
